Experimental data taken from patent publication US20140343017A1, “PYRROLE COMPOUND” (Kabushiki Kaisha Yakult Honsha, priority 2012, published 2014).

Tests used:
Experiment in all cases: Inhibitory effect on growth of human cancer cells (in vitro), WST-8
Assay type in all cases: cell-based
[1] = test system: human colorectal cancer HCT116 cells; conditions: 96 hours culture
Protocol: (§1) Each pyrrole compound of the present invention was studied for its effects on the growth of human non-small cell lung cancer A549 cells and human colorectal cancer HT-29 cells and HCT116 cells. The cells of each line were suspended in an RPMI1640 medium supplemented with 10% fetal bovine serum and inoculated at a cell density of 1000 cells/50 μL/well to a 96-well plate. After overnight culture, each compound diluted with a medium was added thereto at a concentration of 50 μL/well, and the cells were further cultured for 96 hours. After the completion of culture, WST-8 (Seikagaku Corp.) was added thereto at a concentration of 10 μL/well, and the cells were cultured at 37° C. for approximately 1 hour under 5% CO2 conditions, followed by measurement of absorbance at 450 nm.

[2] = test system: human colorectal cancer HT-29 cells; conditions: Homo sapiens, HT-29, 96 h, 96 hours culture, read-out: IC50 (nM) HT29
Protocol: as §1

[3] = test system: human non-small cell lung cancer A549 cells; conditions: 96 hours culture
Protocol: as §1

IC50 [1] [nM]	IC50 [2] [nM]	IC50 ([3]; Homo sapiens, A549, 96 h) [nM]	IC50 ([1]; Homo sapiens, HCT-116, 96 h) [nM]	IC50 [3] [nM]	SMILES
40.2	126	359			CCn1nnc(-c2[nH]c(C)c(C(=O)c3cccc(OCCN)c3)c2C)n1 [Compound 165, (3-(2-aminoethoxy)phenyl)(5-(2-ethyl-2H-tetrazol-5-yl)-2,4-dimethyl-1H-pyrrol-3-yl)methanone]
	31.5		39.5	139	CCn1nnc(-c2[nH]c(C)c(C(=O)c3ccc(OCCN)c(Br)c3)c2C)n1 [Compound 167, (4-(2-aminoethoxy)-3-bromophenyl) (5-(2-ethyl-2H-tetrazol-5-yl)-2,4-dimethyl-1H-pyrrol-3-yl)methanone]
	670	886	506		Cc1[nH]c(-c2nnn(CCO)n2)c(C)c1C(=O)c1ccc(OCCN)c(Br)c1 [Compound 168, (4-(2-aminoethoxy)-3-bromophenyl)(5-(2-(2-hydroxyethyl)-2H-tetrazol-5-yl)-2,4-dimethyl-1H-pyrrol-3-yl)methanone]
	167	225	162		COc1ccc(C(=O)c2c(/C=N/O)[nH]c(-c3nnn(CCOC(C)=O)n3)c2C)cc1Br [Compound 169, (E)-2-(5-(4-(3-bromo-4-methoxybenzoyl)-5-((hydroxyimino)methyl)-3-methyl-1H-pyrrol-2-yl)-2H-tetrazol-2-yl)ethyl acetate]
	143	197	133		COc1ccc(C(=O)c2c(/C=N\O)[nH]c(-c3nnn(CCOC(C)=O)n3)c2C)cc1Br [Compound 170, (Z)-2-(5-(4-(3-bromo-4-methoxybenzoyl)-5-((hydroxyimino)methyl)-3-methyl-1H-pyrrol-2-yl)-2H-tetrazol-2-yl)ethyl acetate]
	35.7	47.4	37.7		CC(=O)OCCn1nnc(-c2[nH]c(CCl)c(C(=O)c3cccc(Br)c3)c2C)n1 [Compound 171, 2-(5-(4-(3-bromobenzoyl)-5-(chloromethyl)-3-methyl-1H-pyrrol-2-yl)-2H-tetrazol-2-yl)ethyl acetate]
	34.5	47	36.9		COc1ccc(C(=O)c2c(CCl)[nH]c(-c3nnn(CCOC(C)=O)n3)c2C)cc1Br [Compound 172, 2-(5-(4-(3-bromo-4-methoxybenzoyl)-5-(chloromethyl)-3-methyl-1H-pyrrol-2-yl)-2H-tetrazol-2-yl)ethyl acetate]
	38.6	77.1	44.6		Cc1[nH]c(-c2nnc(CCCl)o2)c(C)c1C(=O)c1cccc(Br)c1 [Compound 174, (3-bromophenyl)(5-(5-(2-chloroethyl)-1,3,4-oxadiazol-2-yl)-2,4-dimethyl-1H-pyrrol-3-yl)methanone]
	0.4	1.5	0.4		Cc1[nH]c(-c2nnc(C3CC3)o2)c(C)c1C(=O)c1cccc(Br)c1 [Compound 177, (3-bromophenyl)(5-(5-cyclopropyl-1,3,4-oxadiazol-2-yl)-2,4-dimethyl-1H-pyrrol-3-yl)methanone]
	36.9	71.8	45.1		Cc1[nH]c(-c2nnc(C(C)C)o2)c(C)c1C(=O)c1cccc(Br)c1 [Compound 178, (3-bromophenyl) (5-(5-isopropyl-1,3,4-oxadiazol-2-yl)-2,4-dimethyl-1H-pyrrol-3-yl)methanone]
	336	800	329		Cc1[nH]c(-c2nnc(C3CCC3)o2)c(C)c1C(=O)c1cccc(Br)c1 [Compound 179, (3-bromophenyl) (5-(5-cyclobutyl-1,3,4-oxadiazol-2-yl)-2,4-dimethyl-1H-pyrrol-3-yl)methanone]
	1.8	9.1	2.9		Cc1nnc(-c2[nH]c(C)c(C(=O)c3cccc(Br)c3)c2C)o1 [Compound 185, (3-bromophenyl) (2,4-dimethyl-5-(5-methyl-1,3,4-oxadiazol-2-yl)-1H-pyrrol-3-yl)methanone]
	41.7	289	64.1		Cc1[nH]c(-c2nnc(C(F)F)o2)c(C)c1C(=O)c1cccc(Br)c1 [Compound 186, (3-bromophenyl)(5-(5-(difluoromethyl)-1,3,4-oxadiazol-2-yl)-2,4-dimethyl-1H-pyrrol-3-yl)methanone]
	35.1	37.8	40.4		Cc1[nH]c(-c2nnc(C3(O)CC3)o2)c(C)c1C(=O)c1cccc(Br)c1 [Compound 188, (3-bromophenyl)(5-(5-(1-hydroxycyclopropyl)-1,3,4-oxadiazol-2-yl)-2,4-dimethyl-1H-pyrrol-3-yl)methanone]
	135	164	199		Cc1[nH]c(-c2nnc(C3(C)CC3)o2)c(C)c1C(=O)c1cccc(Br)c1 [Compound 189, (3-bromophenyl)(2,4-dimethyl-5-(5-(1-methylcyclopropyl)-1,3,4-oxadiazol-2-yl)-1H-pyrrol-3-yl)methanone]
	192	266	219		Cc1[nH]c(-c2nnc(C3CC3C)o2)c(C)c1C(=O)c1cccc(Br)c1 (stereo not drawn) [Compound 190, (3-bromophenyl) (2,4-dimethyl-5-(5-(2-methylcyclopropyl)-1,3,4-oxadiazol-2-yl)-1H-pyrrol-3-yl)methanone]
	8.5	12.2	9.9		CCc1nnc(-c2[nH]c(C)c(C(=O)c3cccc([N+](=O)[O-])c3)c2C)o1 [Compound 195, (5-(5-ethyl-1,3,4-oxadiazol-2-yl)-2,4-dimethyl-1H-pyrrol-3-yl)(3-nitrophenyl)methanone]
	6.2	9.9	5.5		Cc1[nH]c(-c2nnc(C3CC3)o2)c(C)c1C(=O)c1cccc([N+](=O)[O-])c1 [Compound 196, (5-(5-cyclopropyl-1,3,4-oxadiazol-2-yl)-2,4-dimethyl-1H-pyrrol-3-yl)(3-nitrophenyl)methanone]
	0.9	3.9	1.4		CCc1nnc(-c2[nH]c(C)c(C(=O)c3ccc(OC)c(Br)c3)c2C)o1 [Compound 197, (3-bromo-4-methoxyphenyl)(5-(5-ethyl-1,3,4-oxadiazol-2-yl)-2,4-dimethyl-1H-pyrrol-3-yl)methanone]
	9	19.5	10.6		Cc1[nH]c(-c2nnc(C3CC3)o2)c(C)c1C(=O)c1cccc(CO)c1 [Compound 199, (5-(5-cyclopropyl-1,3,4-oxadiazol-2-yl)-2,4-dimethyl-1H-pyrrol-3-yl)(3-(hydroxymethyl)phenyl)methanone]
	209	389	647		Cc1c(-c2nnc(C3CC3)o2)[nH]c(C2SCCCS2)c1C(=O)c1cccc(Br)c1 [Compound 200, (3-bromophenyl) (5-(5-cyclopropyl-1,3,4-oxadiazol-2-yl)-2-(1,3-dithian-2-yl)-4-methyl-1H-pyrrol-3-yl)methanone]
	50.5	127	62.4		COc1ccc(Br)cc1C(=O)c1c(C)[nH]c(-c2nnc(COC(C)=O)o2)c1C [Compound 202, (5-(4-(5-bromo-2-methoxybenzoyl)-3,5-dimethyl-1H-pyrrol-2-yl)-1,3,4-oxadiazol-2-yl)methyl acetate]
	171	210	152		Cc1[nH]c(-c2nnc(CO)o2)c(C)c1C(=O)c1cc(Br)ccc1O [Compound 203, (5-bromo-2-hydroxyphenyl)(5-(5-(hydroxymethyl)-1,3,4-oxadiazol-2-yl)-2,4-dimethyl-1H-pyrrol-3-yl)methanone]
	5.9	31.1	8.9		CC(=O)OCCc1nnc(-c2[nH]c(C)c(C(=O)c3cccc(Br)c3)c2C)o1 [Compound 204, 2-(5-(4-(3-bromobenzoyl)-3,5-dimethyl-1H-pyrrol-2-yl)-1,3,4-oxadiazol-2-yl)ethyl acetate]
	20.3	64.9	37		Cc1[nH]c(-c2nnc(CCO)o2)c(C)c1C(=O)c1cccc(Br)c1 [Compound 205, (3-bromophenyl)(5-(5-(2-hydroxyethyl)-1,3,4-oxadiazol-2-yl)-2,4-dimethyl-1H-pyrrol-3-yl)methanone]
	8.8	31.5	9.5		C=Cc1nnc(-c2[nH]c(C)c(C(=O)c3cccc(Br)c3)c2C)o1 [Compound 206, (3-bromophenyl)(2,4-dimethyl-5-(5-vinyl-1,3,4-oxadiazol-2-yl)-1H-pyrrol-3-yl)methanone]
	39.3	205	42.9		CC(=O)OCc1nnc(-c2[nH]c(C)c(C(=O)c3cccc(Br)c3)c2C)o1 [Compound 210, (5-(4-(3-bromobenzoyl)-3,5-dimethyl-1H-pyrrol-2-yl)-1,3,4-oxadiazol-2-yl)methyl acetate]
	44.1	183	49.1		Cc1[nH]c(-c2nnc(CO)o2)c(C)c1C(=O)c1cccc(Br)c1 [Compound 211, (3-bromophenyl) (5-(5-(hydroxymethyl)-1,3,4-oxadiazol-2-yl)-2,4-dimethyl-1H-pyrrol-3-yl)methanone]
	230	999	286		Cc1[nH]c(-c2nnc(CN)o2)c(C)c1C(=O)c1cccc(Br)c1 [Compound 214, (5-(5-(aminomethyl)-1,3,4-oxadiazol-2-yl)-2,4-dimethyl-1H-pyrrol-3-yl)(3-bromophenyl)methanone]
